Data taken from PubChem BioAssay AID1745844 (Carcinogenic Potency Database (CPDB), 2022).
Calls of active or inactive are those of the source. How the calls were made is not given here.

Tested on: rodent lifetime carcinogenesis bioassay, tumor incidence TD50
Test: chronic cancer bioassays in animals – CPDB, compiled studies (AID 1745844)

SMILES: O=[N+]([O-])c1ccc(-c2nc(N(CCO)CCO)c3ccccc3n2)s1
- TD50 (rat, strain Sprague-Dawley, males, in feed, site: any site (literature study), lesion: several types, types named in the paper, dosed 50 weeks, study length 52 weeks): 1.1 mg/kg/day
- TD50 (rat, strain Sprague-Dawley, males, in feed, site: mammary gland, lesion: adenocarcinoma, dosed 50 weeks, study length 52 weeks): 11.5 mg/kg/day
- TD50 (rat, strain Sprague-Dawley, males, in feed, site: mammary gland, lesion: several types, types named in the paper, dosed 50 weeks, study length 52 weeks): 6.45 mg/kg/day
- TD50 (rat, strain Sprague-Dawley, males, in feed, site: small intestine, lesion: leiomyosarcoma, dosed 50 weeks, study length 52 weeks): 3.6 mg/kg/day
- TD50 (rat, strain Sprague-Dawley, males, in feed, site: small intestine, lesion: sarcoma, dosed 50 weeks, study length 52 weeks): 3.14 mg/kg/day

SMILES: CN(C)c1ccc(N=Nc2ccccc2)cc1
- TD50 (monkey, strain Rhesus [Macaca mulatta], both sexes, in feed, site: any site (literature study), lesion: malignant tumor, dosed 258 weeks, study length 1019 weeks): 17.2 mg/kg/day
- TD50 (monkey, strain Rhesus [Macaca mulatta], both sexes, in feed, site: lung, lesion: alveolar/bronchiolar carcinoma, dosed 258 weeks, study length 1019 weeks): 4.84 mg/kg/day
- TD50 (rat, strain Wistar albino, females, in feed, site: liver, lesion: bile duct tumor, dosed 33 weeks, study length 56 weeks): 4.9 mg/kg/day
- TD50 (rat, strain Wistar albino, females, in feed, site: liver, lesion: hepatoma, dosed 33 weeks, study length 56 weeks): 3.31 mg/kg/day
- TD50 (rat, strain Wistar albino, females, in feed, site: liver, lesion: liver-cell carcinoma, dosed 33 weeks, study length 56 weeks): 7.42 mg/kg/day

SMILES: CC1=CC(=O)CC(C)(C)C1
- carcinogen call (mouse, strain B6C3F1, females, by gavage, site: any site (literature study), lesion: several types, types named in the paper, dosed 103 weeks, study length 104 weeks): negative (inactive)
- TD50 (mouse, strain B6C3F1, females, by gavage, site: liver, lesion: hepatocellular adenoma + hepatocellular carcinoma + neoplastic nodule, dosed 103 weeks, study length 104 weeks): 2740 mg/kg/day
- TD50 (mouse, strain B6C3F1, males, by gavage, site: all sites, lesion: leukemia, NOS + malignant lymphoma, histiocytic type + malignant lymphoma, mixed type + malignant lymphoma, lymphocytic type, dosed 103 weeks, study length 104 weeks): 236 mg/kg/day
- TD50 (mouse, strain B6C3F1, males, by gavage, site: all sites, lesion: malignant lymphoma, histiocytic type + malignant lymphoma, mixed type + malignant lymphoma, lymphocytic type, dosed 103 weeks, study length 104 weeks): 203 mg/kg/day
- TD50 (mouse, strain B6C3F1, males, by gavage, site: all sites, lesion: malignant lymphoma, histiocytic type, dosed 103 weeks, study length 104 weeks): 244 mg/kg/day
- TD50 (mouse, strain B6C3F1, males, by gavage, site: liver, lesion: hepatocellular adenoma + hepatocellular carcinoma + neoplastic nodule, dosed 103 weeks, study length 104 weeks): 573 mg/kg/day
- TD50 (mouse, strain B6C3F1, males, by gavage, site: liver, lesion: hepatocellular adenoma + hepatocellular carcinoma, dosed 103 weeks, study length 104 weeks): 573 mg/kg/day
- TD50 (mouse, strain B6C3F1, males, by gavage, site: skin + subcutaneous tissue, lesion: fibroma + fibrosarcoma, dosed 103 weeks, study length 104 weeks): 840 mg/kg/day
- TD50 (mouse, strain B6C3F1, males, by gavage, site: skin + subcutaneous tissue, lesion: fibroma + neurofibrosarcoma + fibrosarcoma + sarcoma, dosed 103 weeks, study length 104 weeks): 882 mg/kg/day
- TD50 (mouse, strain B6C3F1, males, by gavage, site: skin + subcutaneous tissue, lesion: neurofibrosarcoma + fibrosarcoma + sarcoma, dosed 103 weeks, study length 104 weeks): 1210 mg/kg/day
- TD50 (mouse, strain B6C3F1, males, by gavage, site: subcutaneous tissue, lesion: fibroma, dosed 103 weeks, study length 104 weeks): 1210 mg/kg/day
- TD50 (mouse, strain B6C3F1, males, by gavage, site: subcutaneous tissue, lesion: fibrosarcoma + fibroma + neurofibrosarcoma + sarcoma, dosed 103 weeks, study length 104 weeks): 703 mg/kg/day
- TD50 (mouse, strain B6C3F1, males, by gavage, site: subcutaneous tissue, lesion: fibrosarcoma + fibroma, dosed 103 weeks, study length 104 weeks): 654 mg/kg/day
- TD50 (mouse, strain B6C3F1, males, by gavage, site: subcutaneous tissue, lesion: fibrosarcoma + neurofibrosarcoma + sarcoma, dosed 103 weeks, study length 104 weeks): 1260 mg/kg/day
- TD50 (mouse, strain B6C3F1, males, by gavage, site: subcutaneous tissue, lesion: fibrosarcoma, dosed 103 weeks, study length 104 weeks): 1170 mg/kg/day
- TD50 (rat, strain Fischer 344, females, by gavage, site: any site (literature study), lesion: several types, types named in the paper, dosed 103 weeks, study length 105 weeks): 16600 mg/kg/day (inactive)
- TD50 (rat, strain Fischer 344, males, by gavage, site: any site (literature study), lesion: several types, types named in the paper, dosed 103 weeks, study length 105 weeks): 237 mg/kg/day
- TD50 (rat, strain Fischer 344, males, by gavage, site: kidney + preputial gland, lesion: tubular-cell adenoma + tubular-cell adenocarcinoma + carcinoma, NOS, dosed 103 weeks, study length 105 weeks): 774 mg/kg/day
- TD50 (rat, strain Fischer 344, males, by gavage, site: kidney, lesion: tubular-cell adenoma + tubular-cell adenocarcinoma, dosed 103 weeks, study length 105 weeks): 1210 mg/kg/day
- TD50 (rat, strain Fischer 344, males, by gavage, site: liver, lesion: hepatocellular adenoma + hepatocellular carcinoma + neoplastic nodule, dosed 103 weeks, study length 105 weeks): 9080 mg/kg/day
- TD50 (rat, strain Fischer 344, males, by gavage, site: preputial gland, lesion: carcinoma, NOS, dosed 103 weeks, study length 105 weeks): 2250 mg/kg/day

SMILES: C[C@@H]1O[C@@]2(CS1)CN1CCC2CC1
- carcinogen call (rat, strain F344/DuCrj, females, by gavage, site: liver, lesion: one or several types, types not named, dosed 52 weeks, study length 52 weeks): negative (inactive)
- carcinogen call (rat, strain F344/DuCrj, males, by gavage, site: liver, lesion: one or several types, types not named, dosed 52 weeks, study length 52 weeks): negative (inactive)

SMILES: CCN(CC)c1ccc2c(-c3ccc(S(=O)(=O)O)cc3S(=O)(=O)[O-])c3ccc(=[N+](CC)CC)cc-3oc2c1
- TD50 (rat, strain F344/DuCrj, females, in feed, site: any site (literature study), lesion: several types, types named in the paper, dosed 106 weeks, study length 106 weeks): 4100 mg/kg/day (inactive)
- carcinogen call (rat, strain F344/DuCrj, females, in feed, site: liver, lesion: one or several types, types not named, dosed 106 weeks, study length 106 weeks): negative (inactive)
- TD50 (rat, strain F344/DuCrj, males, in feed, site: any site (literature study), lesion: several types, types named in the paper, dosed 106 weeks, study length 106 weeks): 2350 mg/kg/day (inactive)
- carcinogen call (rat, strain F344/DuCrj, males, in feed, site: liver, lesion: neoplastic nodule, dosed 106 weeks, study length 106 weeks): negative (inactive)

SMILES: CS(=O)(=O)OCCCCOS(C)(=O)=O
- TD50 (rat, strain BR 46, males, by gavage, site: any site (literature study), lesion: benign tumor, dosed 52 weeks, study length 104 weeks): 0.642 mg/kg/day
- TD50 (rat, strain BR 46, males, by gavage, site: any site (literature study), lesion: malignant tumor, dosed 52 weeks, study length 104 weeks): 0.117 mg/kg/day
- TD50 (rat, strain BR 46, males, by gavage, site: any site (literature study), lesion: several types, types named in the paper, dosed 52 weeks, study length 104 weeks): 0.0931 mg/kg/day

SMILES: FCCl
- TD50 (rat, strain Alpk:APfSD, females, by gavage, site: stomach, lesion: carcinoma, dosed 52 weeks, study length 108 weeks): 2710 mg/kg/day
- TD50 (rat, strain Alpk:APfSD, females, by gavage, site: stomach, lesion: fibrosarcoma, dosed 52 weeks, study length 108 weeks): 119 mg/kg/day
- TD50 (rat, strain Alpk:APfSD, females, by gavage, site: stomach, lesion: sarcoma, dosed 52 weeks, study length 108 weeks): 2710 mg/kg/day
- TD50 (rat, strain Alpk:APfSD, females, by gavage, site: stomach, lesion: several types, types named in the paper, dosed 52 weeks, study length 108 weeks): 26.5 mg/kg/day
- TD50 (rat, strain Alpk:APfSD, females, by gavage, site: stomach, lesion: squamous-cell carcinoma, dosed 52 weeks, study length 108 weeks): 69.4 mg/kg/day
- TD50 (rat, strain Alpk:APfSD, males, by gavage, site: stomach, lesion: fibrosarcoma, dosed 52 weeks, study length 100 weeks): 88.1 mg/kg/day
- TD50 (rat, strain Alpk:APfSD, males, by gavage, site: stomach, lesion: several types, types named in the paper, dosed 52 weeks, study length 100 weeks): 28.5 mg/kg/day
- TD50 (rat, strain Alpk:APfSD, males, by gavage, site: stomach, lesion: squamous-cell carcinoma, dosed 52 weeks, study length 100 weeks): 46.9 mg/kg/day

SMILES: NNc1nc(-c2ccc([N+](=O)[O-])o2)cs1
- TD50 (mouse, strain Swiss, females, in feed, site: any site (literature study), lesion: several types, types named in the paper, dosed 46 weeks, study length 55 weeks): 7.57 mg/kg/day
- TD50 (mouse, strain Swiss, females, in feed, site: forestomach, lesion: squamous-cell papilloma, dosed 46 weeks, study length 55 weeks): 16.4 mg/kg/day
- TD50 (rat, strain Sprague-Dawley, females, in feed, site: any site (literature study), lesion: several types, types named in the paper, dosed 46 weeks, study length 57 weeks): 2.83 mg/kg/day
- TD50 (rat, strain Sprague-Dawley, females, in feed, site: kidney, lesion: several types, types named in the paper, dosed 46 weeks, study length 57 weeks): 36.8 mg/kg/day
- TD50 (rat, strain Sprague-Dawley, females, in feed, site: liver, lesion: cystadenoma, dosed 46 weeks, study length 66 weeks): 295 mg/kg/day
- TD50 (rat, strain Sprague-Dawley, females, in feed, site: mammary gland, lesion: adenocarcinoma, dosed 46 weeks, study length 57 weeks): 7.79 mg/kg/day
- TD50 (rat, strain Sprague-Dawley, females, in feed, site: mammary gland, lesion: adenocarcinoma, dosed 46 weeks, study length 66 weeks): 10.9 mg/kg/day
- TD50 (rat, strain Sprague-Dawley, females, in feed, site: mammary gland, lesion: adenofibroma, dosed 46 weeks, study length 57 weeks): 25.2 mg/kg/day
- TD50 (rat, strain Sprague-Dawley, females, in feed, site: mammary gland, lesion: several types, types named in the paper, dosed 46 weeks, study length 57 weeks): 2.83 mg/kg/day
- TD50 (rat, strain Sprague-Dawley, females, in feed, site: mammary gland, lesion: several types, types named in the paper, dosed 46 weeks, study length 66 weeks): 3.66 mg/kg/day
- TD50 (rat, strain Sprague-Dawley, females, in feed, site: salivary gland, lesion: adenocarcinoma, dosed 46 weeks, study length 66 weeks): 145 mg/kg/day

SMILES: CC(=O)CNCC(O)C(O)N=O (stereo not drawn)
- TD50 (hamster, strain Syrian Golden, females, by gavage, site: forestomach, lesion: several types, types named in the paper, dosed 35 weeks, study length 55 weeks): 0.754 mg/kg/day
- TD50 (hamster, strain Syrian Golden, females, by gavage, site: forestomach, lesion: squamous-cell papilloma, dosed 35 weeks, study length 55 weeks): 0.868 mg/kg/day
- TD50 (hamster, strain Syrian Golden, females, by gavage, site: liver, lesion: hepatocellular adenoma, dosed 35 weeks, study length 55 weeks): 9.92 mg/kg/day
- TD50 (hamster, strain Syrian Golden, females, by gavage, site: liver, lesion: hepatocellular carcinoma, dosed 35 weeks, study length 55 weeks): 20.4 mg/kg/day
- TD50 (hamster, strain Syrian Golden, females, by gavage, site: liver, lesion: several types, types named in the paper, dosed 35 weeks, study length 55 weeks): 9.92 mg/kg/day
- TD50 (hamster, strain Syrian Golden, females, by gavage, site: lung, lesion: carcinoma, dosed 35 weeks, study length 55 weeks): 20.4 mg/kg/day
- TD50 (hamster, strain Syrian Golden, females, by gavage, site: pancreatic duct, lesion: several types, types named in the paper, dosed 35 weeks, study length 55 weeks): 3.63 mg/kg/day
- TD50 (rat, strain Fischer 344, females, in drinking water, site: esophagus, lesion: carcinoma, dosed 31 weeks, study length 55 weeks): 0.0637 mg/kg/day
- TD50 (rat, strain Fischer 344, females, in drinking water, site: esophagus, lesion: several types, types named in the paper, dosed 31 weeks, study length 55 weeks): 0.0352 mg/kg/day
- TD50 (rat, strain Fischer 344, females, in drinking water, site: forestomach, lesion: carcinoma, dosed 31 weeks, study length 55 weeks): 0.155 mg/kg/day
- TD50 (rat, strain Fischer 344, females, in drinking water, site: forestomach, lesion: several types, types named in the paper, dosed 31 weeks, study length 55 weeks): 0.0482 mg/kg/day
- TD50 (rat, strain Fischer 344, females, in drinking water, site: liver, lesion: hepatocellular carcinoma, dosed 31 weeks, study length 55 weeks): 1.3 mg/kg/day (inactive)
- TD50 (rat, strain Fischer 344, females, in drinking water, site: tongue, lesion: carcinoma, dosed 31 weeks, study length 55 weeks): 0.0964 mg/kg/day
- TD50 (rat, strain Fischer 344, females, in drinking water, site: tongue, lesion: several types, types named in the paper, dosed 31 weeks, study length 55 weeks): 0.0555 mg/kg/day
